In patent US12162888B2, “Carboxamides as ubiquitin-specific protease inhibitors” (Valo Early Discovery, Inc., priority 2018, dated 2024):

Target: T1, USP28 (His-tagged USP28-FL-mammalian) (Homo sapiens, UniProt Q96RU2)
T1 construct: Expression of USP28 (1-1077)-TEV-6*His (pTT5 vector) was carried out in Expi293f cells; made in house; host or cells: Expi293F cells (pTT5 vector)
T1 sequence (Q96RU2 1-1077): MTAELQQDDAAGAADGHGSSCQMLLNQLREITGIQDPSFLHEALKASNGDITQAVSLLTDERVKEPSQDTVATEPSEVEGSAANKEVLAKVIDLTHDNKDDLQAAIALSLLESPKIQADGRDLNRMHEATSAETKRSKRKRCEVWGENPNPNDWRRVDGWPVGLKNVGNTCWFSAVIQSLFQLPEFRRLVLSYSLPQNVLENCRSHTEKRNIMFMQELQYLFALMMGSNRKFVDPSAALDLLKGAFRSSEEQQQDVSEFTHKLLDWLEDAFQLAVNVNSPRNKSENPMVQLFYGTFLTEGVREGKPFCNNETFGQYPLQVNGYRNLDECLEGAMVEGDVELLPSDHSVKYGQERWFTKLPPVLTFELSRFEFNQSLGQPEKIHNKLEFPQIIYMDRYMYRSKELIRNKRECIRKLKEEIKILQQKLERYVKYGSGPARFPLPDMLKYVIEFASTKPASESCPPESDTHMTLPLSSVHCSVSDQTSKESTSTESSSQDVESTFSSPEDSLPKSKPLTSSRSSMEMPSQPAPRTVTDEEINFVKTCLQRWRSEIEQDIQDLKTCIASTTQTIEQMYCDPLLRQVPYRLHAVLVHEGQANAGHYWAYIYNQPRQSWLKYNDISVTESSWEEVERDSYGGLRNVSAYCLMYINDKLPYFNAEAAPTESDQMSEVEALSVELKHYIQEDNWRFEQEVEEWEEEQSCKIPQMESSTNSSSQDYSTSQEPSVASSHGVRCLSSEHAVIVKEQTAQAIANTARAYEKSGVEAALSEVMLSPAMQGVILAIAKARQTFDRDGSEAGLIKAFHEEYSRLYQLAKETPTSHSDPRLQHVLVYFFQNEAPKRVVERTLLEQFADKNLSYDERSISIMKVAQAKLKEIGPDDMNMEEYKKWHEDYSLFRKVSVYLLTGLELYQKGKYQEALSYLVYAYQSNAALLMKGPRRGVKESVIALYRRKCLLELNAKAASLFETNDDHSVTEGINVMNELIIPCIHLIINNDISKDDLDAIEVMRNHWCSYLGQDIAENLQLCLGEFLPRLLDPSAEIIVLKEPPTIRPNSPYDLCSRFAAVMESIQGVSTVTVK
Assay: Ubiquitin-Rhodamine 110 Assay for USP28 Activity, Example A-1(a)
Format: biochemical
Conditions: Ubiquitin-Rhodamine 110 biochemical assay, read-out: USP28 A-1(a) IC50 range
Procedure: Example A-1(a): Biochemical Assay: Ubiquitin-Rhodamine 110 Assay for USP28 Activity
The assay was performed in a final volume of 9 μL in assay buffer containing 20 mM Tris-HCl (pH 8.0, (1M Tris-HCl, pH 8.0 solution; Corning 46-031-CM)), 3 mM BME (2-Mercaptoethanol; Sigma 63689-25ML-F), 0.03% BGG (0.22 μM filtered, Sigma, G7516-25G), and 0.01% Triton X-100 (Sigma, T9284-10L). Nanoliter quantities of 10-point, 3-fold serial dilution in DMSO was pre-dispensed into 1536 assay plates (Corning, #3724BC) for a final test concentration of 25 μM to 1.3 nM, top to lowest dose, respectively. Enzyme USP28, construct His-tagged USP28-FL-mammalian, (protein expression and purification procedure described below). Concentration and incubation times were optimized for the maximal signal-to-background while maintaining initial velocity conditions at a fixed substrate concentration. The final concentration of the enzyme in the assay was […]. Final substrate (Ub-Rh110; Ubiquitin-Rhodamine 110, UbiQ-126) concentration was 25 nM with [Ub-Rh110]<<Km. 3 μL of 2× enzyme was added to assay plates (pre-stamped with compound) preincubated with […] for 30 minutes and then 3 μL of 2× Ub-Rh110 was added to assay plates. Plates were incubated for 45 minutes at room temperature before addition of 3 μL of stop solution (final concentration of 10 mM citric acid (Sigma, 251275-500G)). Fluorescence was read on the Envision (Excitation at 485 nm and Emission at 535 nm; Perkin Elmer) or on the PheraSTAR (Excitation at 485 nm and Emission at 535 nm; BMG Labtech).
Procedure for the Protein expression and purification for construct His-tagged USP28-FL-mammalian
Expression of USP28 (1-1077)-TEV-6*His (pTT5 vector) was carried out in Expi293f cells (sequence derived from uniprot ID: Q96RU2-1). Cells were re-suspended in lysis buffer B 50 mM Bicine, pH 8.0, 20 mM NaCl, 5% glycerol, 0.1% CHAPS, 5 mM β-ME, 1 mM PMSF, 1 ug/ml Leupeptin, 1 ug/ml Pepstatin) and lysed by sonication. Insoluble material was removed by centrifugation and the supernatant was loaded onto a Ni-NTA column (GE Healthcare) equilibrated with Ni Buffer A (50 mM Bicine, pH 8.0, 20 mM NaCl, 5% glycerol, 0.1% CHAPS, 5 mM R-ME.) and washed with Ni Buffer A+20 mM imidazole until A280 reached baseline. The protein was eluted with Ni Buffer B (50 mM Bicine, pH 8.0, 20 mM NaCl, 5% glycerol, 0.1% CHAPS, 5 mM β-ME, 300 mM imidazole.). The protein was further purified using a Superdex™ 200 10/300 GL column (GE Healthcare) equilibrated with 50 mM Bicine, pH 8.0, 20 mM NaCl, 5% glycerol, 0.1% CHAPS, 5 mM β-ME. The protein was concentrated to 2.5 mg ml-1, flash-frozen in liquid N2 and stored at −80° C.
For assay formats Example A-1(a), A-1(b), and A-2, data were reported as percent inhibition compared with control wells based on the following equation: % inh=1−((FLU−AveLow)/(AveHigh−AveLow)) where FLU=measured Fluorescence, AveLow=average Fluorescence of no enzyme control (n=16), and AveHighh=average Fluorescence of DMSO control (n=16). IC50 values were determined by curve fitting of the standard 4 parameter logistic fitting algorithm included in the Activity Base software package: IDBS XE Designer Model 205. Data is fitted using the Levenburg Marquardt algorithm.

| SMILES | IC50 |
| --- | --- |
| CO[C@@H]1CN(c2ccc3c(n2)CC[C@H](NC(=O)c2sc4nc(C)cnc4c2N)C3)C[C@@H]1N [Example 491, 7-amino-N-[(6S)-2-[(3S,4R)-3-amino-4-methoxypyrrolidin-1-yl]-5,6,7,8-tetrahydroquinolin-6-yl]-3-methylthieno[2,3-b]pyrazine-6-carboxamide] | 50 to 200 nM |
| CO[C@H]1CN(c2ccc3c(n2)CC[C@H](NC(=O)c2sc4nc(C)cnc4c2N)C3)C[C@H]1N [Example 492, 7-amino-N-[(6S)-2-[(3R,4S)-3-amino-4-methoxypyrrolidin-1-yl]-5,6,7,8-tetrahydroquinolin-6-yl]-3-methylthieno[2,3-b]pyrazine-6-carboxamide] | 50 to 200 nM |
| CO[C@@H]1CCCN(c2ccc3c(n2)CC[C@H](NC(=O)c2sc4nc(C)ccc4c2N)C3)C[C@H]1N [Example 493, 3-amino-N-[(6S)-2-[(3R,4R)-3-amino-4-methoxyazepan-1-yl]-5,6,7,8-tetrahydroquinolin-6-yl]-6-methylthieno[2,3-b]pyridine-2-carboxamide] | 1 to 50 nM |
| CO[C@H]1CCCN(c2ccc3c(n2)CC[C@H](NC(=O)c2sc4nc(C)ccc4c2N)C3)C[C@@H]1N [Example 494, 3-amino-N-[(6S)-2-[(3S,4S)-3-amino-4-methoxyazepan-1-yl]-5,6,7,8-tetrahydroquinolin-6-yl]-6-methylthieno[2,3-b]pyridine-2-carboxamide] | 1 to 50 nM |
| CO[C@@H]1CCCN(c2ccc3c(n2)CC[C@H](NC(=O)c2sc4nc(C)ccc4c2N)C3)C[C@@H]1N [Example 495, 3-amino-N-[(6S)-2-[(3S,4R)-3-amino-4-methoxyazepan-1-yl]-5,6,7,8-tetrahydroquinolin-6-yl]-6-methylthieno[2,3-b]pyridine-2-carboxamide] | 50 to 200 nM |
| CN[C@H]1CN(c2ccc3c(n2)CC[C@H](NC(=O)c2sc4nc(C)cnc4c2N)C3)C[C@H]1OC [Example 496, 7-amino-N-[(6S)-2-[(3R,4S)-3-methoxy-4-(methylamino)pyrrolidin-1-yl]-5,6,7,8-tetrahydroquinolin-6-yl]-3-methylthieno[2,3-b]pyrazine-6-carboxamide] | 200 to 2000 nM |
| CN[C@@H]1CN(c2ccc3c(n2)CC[C@H](NC(=O)c2sc4nc(C)cnc4c2N)C3)C[C@@H]1OC [Example 497, 7-amino-N-[(6S)-2-[(3S,4R)-3-methoxy-4-(methylamino)pyrrolidin-1-yl]-5,6,7,8-tetrahydroquinolin-6-yl]-3-methylthieno[2,3-b]pyrazine-6-carboxamide] | 200 to 2000 nM |
| Cc1cnc2c(N)c(C(=O)N[C@H]3CCc4nc(N5C[C@H](N)C6(C5)OCCO6)ccc4C3)sc2n1 [Example 498, 7-amino-N-[(6S)-2-[(9S)-9-amino-1,4-dioxa-7-azaspiro[4.4]nonan-7-yl]-5,6,7,8-tetrahydroquinolin-6-yl]-3-methylthieno[2,3-b]pyrazine-6-carboxamide] | 200 to 2000 nM |
| Cc1cnc2c(N)c(C(=O)N[C@H]3CCc4nc(N5C[C@@H](N)C6(C5)OCCO6)ccc4C3)sc2n1 [Example 499, 7-amino-N-[(6S)-2-[(9R)-9-amino-1,4-dioxa-7-azaspiro[4.4]nonan-7-yl]-5,6,7,8-tetrahydroquinolin-6-yl]-3-methylthieno[2,3-b]pyrazine-6-carboxamide] | 200 to 2000 nM |
| COC[C@@H]1CN(c2ccc3c(n2)CC[C@H](NC(=O)c2sc4cnccc4c2N)C3)C[C@@H]1N [Example 500, 3-amino-N-[(6S)-2-[(3R,4R)-3-amino-4-(methoxymethyl)pyrrolidin-1-yl]-5,6,7,8-tetrahydroquinolin-6-yl]thieno[2,3-c]pyridine-2-carboxamide] | > 2000 nM |
| CO[C@H]1CCCN(c2ccc3c(n2)CC[C@H](NC(=O)c2sc4nc(C)ccc4c2N)C3)C[C@H]1N [Example 501, 3-amino-N-[(6S)-2-[(3R,4S)-3-amino-4-methoxyazepan-1-yl]-5,6,7,8-tetrahydroquinolin-6-yl]-6-methylthieno[2,3-b]pyridine-2-carboxamide] | 200 to 2000 nM |
| CN[C@H]1CN(c2ccc3c(n2)CC[C@H](NC(=O)c2sc4nc(C)ccc4c2N)C3)C[C@]12CCCCO2 [Example 502, 3-amino-6-methyl-N-[(6S)-2-[(4S,5R)-4-(methylamino)-6-oxa-2-azaspiro[4.5]decan-2-yl]-5,6,7,8-tetrahydroquinolin-6-yl]thieno[2,3-b]pyridine-2-carboxamide] | 50 to 200 nM |
| CN[C@@H]1CN(c2ccc3c(n2)CC[C@H](NC(=O)c2sc4nc(C)ccc4c2N)C3)C[C@@]12CCCCO2 [Example 503, 3-amino-6-methyl-N-[(6S)-2-[(4R,5S)-4-(methylamino)-6-oxa-2-azaspiro[4.5]decan-2-yl]-5,6,7,8-tetrahydroquinolin-6-yl]thieno[2,3-b]pyridine-2-carboxamide] | 50 to 200 nM |
| CO[C@H]1CN(c2ccc3c(n2)CC[C@H](NC(=O)c2sc4cnccc4c2N)C3)C[C@@H]1N [Example 504, 3-amino-N-[(6S)-2-[(3S,4S)-3-amino-4-methoxypyrrolidin-1-yl]-5,6,7,8-tetrahydroquinolin-6-yl]thieno[2,3-c]pyridine-2-carboxamide] | > 2000 nM |
| Cc1ccc2c(N)c(C(=O)N[C@H]3CCc4nc(N5CC[C@]6(CCCN6)C5)ccc4C3)sc2n1 [Example 505, 3-amino-N-[(6S)-2-[(5R)-1,7-diazaspiro[4.4]nonan-7-yl]-5,6,7,8-tetrahydroquinolin-6-yl]-6-methylthieno[2,3-b]pyridine-2-carboxamide] | 50 to 200 nM |
| Cc1ccc2c(N)c(C(=O)N[C@H]3CCc4nc(N5C[C@H](N)[C@@]6(CCCCO6)C5)ccc4C3)sc2n1 [Example 508, 3-amino-N-[(6S)-2-[(4S,5R)-4-amino-6-oxa-2-azaspiro[4.5]decan-2-yl]-5,6,7,8-tetrahydroquinolin-6-yl]-6-methylthieno[2,3-b]pyridine-2-carboxamide] | 50 to 200 nM |
